Assay results reported in patent US10202361B2, “Pyridazinones as herbicides” (E I DU PONT DE NEMOURS AND COMPANY, priority 2014, dated 2019).

Experiments:
Experiment in all cases: Test E pre-/postemergence greenhouse herbicide test
Format in all cases: in vivo
[1] = test system: nightshade (eastern black nightshade, Solanum ptycanthum); details: Preemergence, scale 0 to 100
Excerpt: (§1) Seeds of plant species selected from corn (Zea mays), soybean (Glycine max), lambsquarters (Chenopodium album), poinsettia, wild (wild poinsettia, Euphorbia heterophylla), pigweed, palmer (palmer pigweed, Amaranthus palmeri), waterhemp (common waterhemp, Amaranthus rudis), surinam grass (Brachiaria decumbens), crabgrass, large (large crabgrass Digitaria sanguinalis), crabgrass, Brazil (Brazilian crabgrass, Digitaria horizontalis), panicum, fall (fall panicum, Panicum dichotomiflorum), foxtail, giant (giant foxtail, Setaria faberii), foxtail, green (green foxtail, Setaria viridis), goosegrass (Eleusine indica), johnsongrass (Sorghum halepense), ragweed (common ragweed, Ambrosia elatior), barnyardgrass (Echinochloa crus-galli), sandbur (southern sandbur, Cenchrus echinatus), arrowleaf sida (Sida rhombifolia), ryegrass, Italian (Italian ryegrass, Lolium multiflorum), dayflower, VA (Virginia dayflower, Commelina virginica), field bindweed (Convolvulus arvensis), cocklebur (common cocklebur, Xanthium strumarium), morningglory (Ipomoea coccinea), nightshade (eastern black nightshade, Solanum ptycanthum), kochia (Kochia scoparia), nutsedge, yellow (yellow nutsedge, Cyperus esculentus), smartweed (ladysthumb smartweed, Polygonum persicaria), velvetleaf (Abutilon theophrasti), and beggarticks (hairy beggarticks, Bidens pilosa), were planted into a silt loam soil and treated preemergence with test chemicals formulated in a non-phytotoxic solvent mixture which included a surfactant.
(§2) At the same time, plants from these crop and weed species and also waterhemp_RES1, (ALS & Triazine resistant common waterhemp, Amaranthus rudis), and waterhemp_RES2, (ALS & HPPD resistant common waterhemp, Amaranthus rudis) were planted in pots containing Redi-Earth® planting medium (Scotts Company, 14111 Scottslawn Road, Marysville, Ohio 43041) comprising spaghnum peat moss, vermiculite, wetting agent and starter nutrients were treated with postemergence applications of test chemicals formulated in the same manner. Plants ranged in height from 2 to 18 cm for postemergence treatments (1- to 4-leaf stage). Treated plants and controls were maintained in a greenhouse for 14 to 21 d, after which time all species were compared to controls and visually evaluated. Plant response ratings, summarized in Table E, are based on a scale of 0 to 100 where 0 is no effect and 100 is complete control. A dash (-) response means no test result.

[2] = test system: velvetleaf (Abutilon theophrasti); details: Preemergence, scale 0 to 100
Excerpt: as §1, §2

[3] = test system: barnyardgrass (Echinochloa crus-galli); details: scale 0 to 100
Excerpt: as §1, §2

[4] = test system: beggarticks (hairy beggarticks, Bidens pilosa); details: scale 0 to 100
Excerpt: as §1, §2

[5] = test system: lambsquarters (Chenopodium album); details: Preemergence, scale 0 to 100
Excerpt: as §1, §2

[6] = test system: dayflower, VA (Virginia dayflower, Commelina virginica); details: scale 0 to 100
Excerpt: as §1, §2

[7] = test system: sandbur (southern sandbur, Cenchrus echinatus); details: scale 0 to 100
Excerpt: as §1, §2

corn (Zea mays) = details: scale 0 to 100
Excerpt: as §1, §2

[8] = test system: ryegrass, Italian (Italian ryegrass, Lolium multiflorum); details: scale 0 to 100
Excerpt: as §1, §2

[9] = test system: waterhemp (common waterhemp, Amaranthus rudis); details: scale 0 to 100
Excerpt: as §1, §2

[10] = test system: pigweed, palmer (palmer pigweed, Amaranthus palmeri); details: scale 0 to 100
Excerpt: as §1, §2

[11] = test system: arrowleaf sida (Sida rhombifolia); details: scale 0 to 100
Excerpt: as §1, §2

[12] = test system: morningglory (Ipomoea coccinea); details: Preemergence, scale 0 to 100
Excerpt: as §1, §2

[13] = test system: foxtail, giant (giant foxtail, Setaria faberii); details: Preemergence, scale 0 to 100
Excerpt: as §1, §2

[14] = test system: surinam grass (Brachiaria decumbens); details: Preemergence, scale 0 to 100
[15] = test system: goosegrass (Eleusine indica); details: Preemergence, scale 0 to 100

## COc1cc(=O)n(-c2ccc(C(F)(F)F)cc2)nc1Cc1ccnc(C(F)(F)F)c1 [Compound 16, 5-methoxy-2-[4-(trifluoromethyl)phenyl]-6-[[2-(trifluoromethyl)-4-pyridinyl]methyl]-3(2H)-pyridazinone]
[1]; 62 g ai/ha
  Plant response rating: Nightshade: 80
[1]; 125 g ai/ha
  Plant response rating: Nightshade: 100
[1]; 250 g ai/ha
  Plant response rating: Nightshade: 100
[2]; 62 g ai/ha
  Plant response rating: Velvetleaf: 0
[2]; 125 g ai/ha
  Plant response rating: Velvetleaf: 0
[2]; 250 g ai/ha
  Plant response rating: Velvetleaf: 50
[3]; Postemergence, 62 g ai/ha
  Plant response rating: Barnyardgrass: 15
[3]; Postemergence, 125 g ai/ha
  Plant response rating: Barnyardgrass: 30
[3]; Postemergence, 250 g ai/ha
  Plant response rating: Barnyardgrass: 50
[3]; Preemergence, 62 g ai/ha
  Plant response rating: Barnyardgrass: 35
[3]; Preemergence, 125 g ai/ha
  Plant response rating: Barnyardgrass: 50
[3]; Preemergence, 250 g ai/ha
  Plant response rating: Barnyardgrass: 70
[4]; Postemergence, 62 g ai/ha
  Plant response rating: Beggarticks: 30
[4]; Postemergence, 125 g ai/ha
  Plant response rating: Beggarticks: 50
[4]; Postemergence, 250 g ai/ha
  Plant response rating: Beggarticks: 50
[4]; Preemergence, 62 g ai/ha
  Plant response rating: Beggarticks: 0
[4]; Preemergence, 125 g ai/ha
  Plant response rating: Beggarticks: 0
[4]; Preemergence, 250 g ai/ha
  Plant response rating: Beggarticks: 20
[5]; 62 g ai/ha
  Plant response rating: Lambsquarters: 98
[5]; 125 g ai/ha
  Plant response rating: Lambsquarters: 98
[5]; 250 g ai/ha
  Plant response rating: Lambsquarters: 100
[6]; Postemergence, 62 g ai/ha
  Plant response rating: Dayflower, VA: 20
[6]; Postemergence, 125 g ai/ha
  Plant response rating: Dayflower, VA: 60
[6]; Postemergence, 250 g ai/ha
  Plant response rating: Dayflower, VA: 70
[6]; Preemergence, 62 g ai/ha
  Plant response rating: Dayflower, VA: 5
[6]; Preemergence, 125 g ai/ha
  Plant response rating: Dayflower, VA: 20
[6]; Preemergence, 250 g ai/ha
  Plant response rating: Dayflower, VA: 65
[7]; Postemergence, 62 g ai/ha
  Plant response rating: Sandbur: 30
[7]; Postemergence, 125 g ai/ha
  Plant response rating: Sandbur: 35
[7]; Postemergence, 250 g ai/ha
  Plant response rating: Sandbur: 50
[7]; Preemergence, 62 g ai/ha
  Plant response rating: Sandbur: 40
[7]; Preemergence, 125 g ai/ha
  Plant response rating: Sandbur: 65
[7]; Preemergence, 250 g ai/ha
  Plant response rating: Sandbur: 80
Corn (Zea mays); Postemergence, 62 g ai/ha
  Plant response rating: Corn: 30
Corn (Zea mays); Postemergence, 125 g ai/ha
  Plant response rating: Corn: 40
Corn (Zea mays); Postemergence, 250 g ai/ha
  Plant response rating: Corn: 50
Corn (Zea mays); Preemergence, 62 g ai/ha
  Plant response rating: Corn: 40
Corn (Zea mays); Preemergence, 125 g ai/ha
  Plant response rating: Corn: 40
Corn (Zea mays); Preemergence, 250 g ai/ha
  Plant response rating: Corn: 65
[8]; Postemergence, 62 g ai/ha
  Plant response rating: Ryegrass, Italian: 20
[8]; Postemergence, 125 g ai/ha
  Plant response rating: Ryegrass, Italian: 20
[8]; Postemergence, 250 g ai/ha
  Plant response rating: Ryegrass, Italian: 40
[8]; Preemergence, 62 g ai/ha
  Plant response rating: Ryegrass, Italian: 20
[8]; Preemergence, 125 g ai/ha
  Plant response rating: Ryegrass, Italian: 20
[8]; Preemergence, 250 g ai/ha
  Plant response rating: Ryegrass, Italian: 50
[9]; Postemergence, 62 g ai/ha
  Plant response rating: Waterhemp: 80
[9]; Postemergence, 125 g ai/ha
  Plant response rating: Waterhemp: 80
[9]; Postemergence, 250 g ai/ha
  Plant response rating: Waterhemp: 100
[9]; Preemergence, 62 g ai/ha
  Plant response rating: Waterhemp: 100
[9]; Preemergence, 125 g ai/ha
  Plant response rating: Waterhemp: 100
[9]; Preemergence, 250 g ai/ha
  Plant response rating: Waterhemp: 100
[10]; Postemergence, 62 g ai/ha
  Plant response rating: Pigweed, Palmer: 70
[10]; Postemergence, 125 g ai/ha
  Plant response rating: Pigweed, Palmer: 75
[10]; Postemergence, 250 g ai/ha
  Plant response rating: Pigweed, Palmer: 95
[10]; Preemergence, 62 g ai/ha
  Plant response rating: Pigweed, Palmer: 98
[10]; Preemergence, 125 g ai/ha
  Plant response rating: Pigweed, Palmer: 98
[10]; Preemergence, 250 g ai/ha
  Plant response rating: Pigweed, Palmer: 98
[11]; Postemergence, 62 g ai/ha
  Plant response rating: Arrowleaf Sida: 60
[11]; Postemergence, 250 g ai/ha
  Plant response rating: Arrowleaf Sida: 80
[11]; Preemergence, 62 g ai/ha
  Plant response rating: Arrowleaf Sida: 0
[11]; Preemergence, 125 g ai/ha
  Plant response rating: Arrowleaf Sida: 0
[11]; Preemergence, 250 g ai/ha
  Plant response rating: Arrowleaf Sida: 5
[12]; 62 g ai/ha
  Plant response rating: Morningglory: 25
[12]; 125 g ai/ha
  Plant response rating: Morningglory: 65
[12]; 250 g ai/ha
  Plant response rating: Morningglory: 80
[13]; 62 g ai/ha
  Plant response rating: Foxtail, Giant: 75
[13]; 125 g ai/ha
  Plant response rating: Foxtail, Giant: 90
[13]; 250 g ai/ha
  Plant response rating: Foxtail, Giant: 100
[14]; 62 g ai/ha
  Plant response rating: Surinam Grass: 25
[14]; 125 g ai/ha
  Plant response rating: Surinam Grass: 40
[14]; 250 g ai/ha
  Plant response rating: Surinam Grass: 98
[15]; 62 g ai/ha
  Plant response rating: Goosegrass: 5
[15]; 125 g ai/ha
  Plant response rating: Goosegrass: 20
[15]; 250 g ai/ha
  Plant response rating: Goosegrass: 50
